Measurements: patent US6180385A (priority 1996, dated 2001)

How the values were obtained:
Lb proteinase [1] = biological target: T1, Lb proteinase (Foot-and-mouth disease virus serotype O, UniProt P03305)
L proteinase = conditions: cited from earlier work
Lb proteinase [2] = biological target: T1, Lb proteinase; type: biochemical, FMDV

T1 sequence (P03305 29-201 limits assumed): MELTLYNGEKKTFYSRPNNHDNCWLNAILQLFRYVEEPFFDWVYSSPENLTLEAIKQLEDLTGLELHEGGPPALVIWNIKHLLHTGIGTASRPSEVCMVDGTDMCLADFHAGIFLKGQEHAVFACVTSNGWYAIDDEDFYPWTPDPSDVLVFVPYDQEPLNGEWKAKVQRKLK

Row | Compound | cleavage of peptide in the absence of SDS (controls) (Lb proteinase [1]) | peptide cleaved by Lb (qualitative) (Lb proteinase [1]) | also measured
1 | Ac-T*R*P I I T T A G P S D M Y V H-NH2 [Peptide P89] | efficient cleavage | cleaved | 
2 | T P S F A N L G*R T T L S T R G [p220-6] | efficient cleavage | cleaved | FMDV Lb cleavage site on the peptide (* indicates cleavage site) (Lb proteinase [1]): G*R
3 | G R T T L S T R*G P P R G G P G [p220-4] | efficient cleavage | cleaved | 
4 | CC(C)CC(NC(=O)C1OC1C(=O)O)C(=O)NCCCCN=C(N)N (stereo not shown) [Peptide E64, E64] |  |  | effect on the L proteinase (L proteinase): inhibition
5 | CCCCCCCCCCCCOS(=O)(=O)O [SDS] |  |  | cleavage of peptide LVP4-1 by Lb proteinase in the presence of inhibitor (Lb proteinase [2]): No cleavage; inhibition of cleavage of peptides P89, p220-4 and p220-6 by Lb proteinase (Lb proteinase [2]): complete inhibition
